Source: patent publication US20030186946A1, “Suppression of cytotoxic protein conformers” (priority 2002, published 2003)
Where two headings read alike, the source gives them in different places.

Experiments:
[1] = target: T1, human amylin (Homo sapiens, UniProt P10997); assay: Circular dichroism assay of amylin conformation; format: biochemical; set-up: Amylin is a 37-residue; C-terminally amidated peptide having a disulfide bridge between the cysteines at residues 2 and 7; purchased Bachem Calif; (Torrance, Calif.); host or cells: chemical synthesis; conditions: 200 μM Amaranth, approximately 4 μM human amylin, 4% HFIP (FIG. 9F)
T1 sequence (P10997 34-70 limits assumed): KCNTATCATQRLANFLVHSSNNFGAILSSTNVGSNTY
Procedure: Preparation of monomeric human amylin. Human amylin (batch 0551805) was obtained from Bachem (Torrence, Calif.). Stock solutions of amylin were prepared as described by Padrick and Miranker, 2002. Human amylin was solubilised in 6M guanidine HCL/50 mM potassium phosphate, pH 6.0, and loaded onto a C18 reversed-phase spin column (Harvard Biosciences). The column was then washed sequentially with 10% Acetonitrile, 0.2% trifluoroacetic acid and water. Monomeric amylin was eluted in 100% HFIP (hexafluoroisopropanol). This stock solution of amylin was then used for all Circular Dichroism experiments.
Circular Dichroism Assay. Circular dichroism spectra were measured on a Pi-Star 180 spectrometer (Applied Photophysics, Leatherhead, UK). Measurements were carried out in either 100% HFIP or 100 mM potassium chloride/50 mM potassium phosphate buffer (pH 7.4) and 2.5% HFIP at 25° C. A stock solution of monomeric human amylin was diluted into buffer to a final concentration of 2.5% HFIP and approximately 5 μM amylin to initiate amylin fibril formation. Spectra were collected at 1 nm intervals with a sample period of 25 μs and adaptive sampling of ±0.01 mdeg. Measurements were recorded immediately following addition of the human amylin stock solution to phosphate buffer in the presence or absence of Congo red or amaranth.
Human amylin (100 μg) was purified on a C18 spin column to give a stock solution in 100% HFIP as described in the methods. A spectrum of this stock solution was collected at 1 nm intervals in a 0.1 cm path length quartz cell (FIG. 9B). The stock solution of monomeric amylin in 100% HFIP was diluted to 2.5% HFIP in 100 mM potassium chloride/50 mM potassium phosphate buffer (pH 7.4). Human amylin concentration was approximately 5 μM. A spectrum was collected at 1 nm intervals in a 0.5 cm path length quartz cell in the absence (FIG. 9C) or presence of 20-fold molar excess of Congo red over human amylin (FIG. 9D). The stock solution of monomeric amylin in 100% HFIP was diluted to 4% HFIP in 100 mM potassium chloride/50 mM potassium phosphate buffer (pH 7.4) containing decreasing concentrations of Congo red as indicated in the Figure. Human amylin concentration was approximately 4 μM. Spectra were collected at 1 nm intervals in a 0.1 cm path length quartz cell (FIG. 9E). The stock solution of monomeric amylin in 100% HFIP was diluted to 4% HFIP in 100 mM potassium chloride/50 mM potassium phosphate buffer (pH 7.4) containing 200 μM Amaranth. Human amylin concentration was approximately 4 μM. Spectra were collected at 1 nm intervals in a 0.1 cm path length quartz cell (FIG. 9F).

[2] = target: T1, human amylin; conditions: 10 μM thioflavin-T
Procedure: Thioflavin-T binding fluorescent assays. The effects of various polycyclic compounds on islet amyloid formation were measured by fluorescence spectroscopy, using a SpectraMAX Gemini XS Fluorescence Spectrophotometer (Molecular Devices Corporation, Sunnyvale, Calif.). Excitation and emission maxima were set to 450 nm and 510 nm respectively using a cutoff filter at 495 nm. Thioflavin-T binds to amylin fibrils, but not to monomeric amylin (Goldsbury et al., (1999), J. Mol. Biol., 285:33-39). […] The rate of amylin fibril formation was determined by following thioflavin-T fluorescence in the presence or absence of the potential inhibitory drug. […] Background fluorescence by acridine and acridine orange in the absence of amylin was subtracted from the experimental results. The control preparation contained human amylin and thioflavin-T in the absence of drug. The rate of fluorescence enhancement under these conditions was used to compare amylin fibril formation in the absence and presence of the drug. All other experimental conditions were identical.
Tri-prolyl amylin and rat amylin with thioflavin-T were also used as additional controls.
Each data point represents the mean±s.e.m of three separate reactions.
Effect of chlorpromazine on enhancement of thioflavin-Tfluorescence by human amylin (FIG. 2). Chlorpromazine (700 μM) (π) was incubated in 10 mM tris p H 7.4, with monomeric human amylin (70 μM) in the presence of thioflavin-T (10 μM). The fluorescence of the reaction was monitored over 24 hours as described in the methods. […] Each data point represents the mean±s.e.m of three separate reactions.
Effect of selected polycylic compounds on enhancement of thioflavin-Tfluorescence by human amylin (FIG. 3). Acridine, acridine orange, neutral red and methylene blue are selected examples of fused tricyclic ring compounds. […] Compound structures are shown adjacent to the appropriate graph. […] Fluorescence was monitored over 24 h as described in the Methods. A preparation containing human amylin and thioflavin-T only (▪), was included as a comparison in the absence of drug. […] Each data point represents the mean±s.e.m of three independent experiments.

[3] = target: T1, human amylin; assay: Radiolabelled precipitation assay of amylin fibril formation; format: biochemical; set-up: Amylin is a 37-residue; C-terminally amidated peptide having a disulfide bridge between the cysteines at residues 2 and 7; purchased Bachem Calif; (Torrance, Calif.); host or cells: chemical synthesis; conditions: for effect on precipitable amyloid formation: 200 μM compound, 10 μM human amylin, 16,000×g (FIG. 8)
Procedure: Radiolabelled Precipitation Assays. The precipitation of radiolabelled human and rat amylin fibrils was used as an independent method to monitor assembly of amylin fibrils in the presence or absence of potential inhibitors of amylin fibril formation. […] Incubation mixtures were then centrifuged at either 16,000×g or 100,000×g, for 20 min, and the amount of [^3H]-human amylin remaining in the supernatant after centrifugation was determined (Beckman LSW 3801 β-counter, USA). Results were expressed as percentages of precipitable counts per minute, relative to total radioactivity in the supernatant.
Incorporation of [^3H]-amylin into amylin fibrils was followed for 24 hours. Human amylin fibrils were precipitated by centrifugation at either 16,000×g (FIG. 7A) or at 100,000×g (FIG. 7B). Rat amylin (10 μM) in the presence of [^3H]-rat amylin was used as a non-fibril forming control (♦) (FIG. 7A). The results are shown as the percentage of precipitable radioactive amylin, relative to total radioactivity in the supernatant at each time point. Each data point represents the mean±s.e.m of three separate reactions.
The incorporation of radioactive monomeric amylin into the human amylin fibrils as they form, can be used to measure the rate at which amylin fibrils form in the presence or absence of a potential inhibitory drug. Amylin fibrils can be separated from solution by centrifugation and the amount of radioactive amylin precipitated in the amylin fibril pellet is then used as a measure of the amount of amylin fibrils present at that time.
Thioflavin-T, although not polycyclic, is widely used in fluorescent assays to measure amylin fibril formation. Incorporation of radioactivity into the pellet of an aliquot of the reaction mixture centrifuged at 16,000×g, for 20 minutes was monitored over the time periods indicated. Rat amylin (10 μM) with [^3H]-rat amylin added was used as a non fibril forming control (∘) in each experiment. The results are shown as the percentage of precipitable radioactive amyloid, relative to total radioactivity in the supernatant at each time point. Each data point represents the mean±s.e.m of three separate experiments.

[4] = target: T1, human amylin; assay: Electron microscopy of human amylin fibrils; format: biochemical; set-up: Amylin is a 37-residue; C-terminally amidated peptide having a disulfide bridge between the cysteines at residues 2 and 7; purchased Bachem Calif; (Torrance, Calif.); host or cells: chemical synthesis
Procedure: Electron Microscopy. […] Samples were removed at various time points and prepared for electron microscopy. Aliquots (8 μl) of the amylin fibril preparations were absorbed to glow-discharged carbon-coated collodion film on 200-mesh copper grids for 1 min. Grids were blotted, washed twice in droplets of deionised water and stained with 2% (w/v) uranyl acetate. Grids were examined in a Phillips Technai transmission electron microscope operated at 120 kV.
Samples were removed at various time points and prepared for electron microscopy according to the procedure described in the methods.
Electron Microscopy of human amylin fibrils in the presence and absence of quinacrine (FIG. 5). A 100 fold molar excess of quinacrine was incubated with human amylin. Samples were removed at various time points and prepared for electron microscopy according to the procedure described in the methods.
Electron Microscopy of human amylin fibrils in the presence and absence of selected polycyclic compounds (FIG. 6). […] Samples were removed and prepared for electron microscopy as described in the Methods. All experiments were performed in triplicate and the pictures above are representative of at least 6 photographs taken at each magnification.

[5] = test system: RINm5F cells; assay: Cytotoxicity assay in RINm5F cells (calcein-AM / ethidium homodimer-1 staining); conditions: for cytotoxicity of amylin peptide to RINm5F cells: 30 μM peptide, 22 h, compared to vehicle control
Procedure: Cell Culture and Cytotoxicity Assays. RINm5F cells were cultured in RPMI 1640 medium containing 10% fetal bovine serum, 290 μg/mL L-glutamine, 100 IU/mL penicillin and 100 μg/mL streptomycin. Cells were plated at a density of 15×1 cells per well, incubated for 48 h, rinsed with PBS and placed in fresh medium containing Congo red. Freshly prepared human amylin in Milli-Q water, was preincubated with Congo red for 30 min, then added to the cell culture medium to give a final concentration of 30 μM. Cells were treated for 22 h with human amylin in the presence or absence of 100 μM Congo red. Cell viability was determined by double-staining with calcein-AM and ethidium homodimer-1. Green fluorescence of live cells and red fluorescence marking nuclei of dead cells were simultaneously visualized using a Zeiss Axiovert S100 microscope equipped with a Zeiss filter set # 09. Photographs were taken at 400× magnification using a Zeiss AxioCam digital camera.
A. Representative fluorescence micrograph of RINm5F cells treated with 30 μM human amylin for 22 h and stained with calcein-AM and ethidium homodimer-1 to show live cells (green) and dead cells (red). […] B. A representative micrograph of RINm5F cells treated with 30 μM human amylin and 100 μM Congo red stained as above. […] The percentage of live cells was determined for cells treated for 22 h with vehicle; 30 μM human amylin; 30 μM human amylin in the presence of 100 μM Congo red; or 30 μM rat amylin. Experiments were repeated independently 10 times except for human amylin plus Congo red (A+CR) which was repeated five times. Error bars represent the s.e.m of live and dead cell counts over 6-12 fields per condition.

[6] = 1200 μM compound (20-fold molar excess), 60 μM human amylin, over 24 h (FIG. 3)
[7] = 1200 μM compound, 60 μM human amylin, 10 mM tris pH 7.4, 24 h (FIG. 6)

O=S(=O)([O-])c1ccc2c(N=Nc3ccc(S(=O)(=O)[O-])c4ccccc34)c(O)c(S(=O)(=O)[O-])cc2c1.[Na+].[Na+].[Na+] [Amaranth]
effect on β-conformer formation of human amylin (circular dichroism) [1]: prevents formation of β-conformers and instead arrests the amylin peptide in an α-helical conformation

c1ccc2nc3ccccc3cc2c1 [acridine]
enhancement of thioflavin-T fluorescence by human amylin [2, 6]: moderate reduction in thioflavin-T enhanced fluorescence
effect on precipitable amyloid formation [3]: no effects on amyloid formation

CN(C)CCCN1c2ccccc2Sc2ccc(Cl)cc21 [chlorpromazine]
inhibition of amylin fibril formation ([2]; 700 μM chlorpromazine, 70 μM human amylin, over 24 hours (FIG. 2)): approximately 60%
enhancement of thioflavin-T fluorescence by human amylin [2, 6]: little inhibition of amylin fibril associated thioflavin-T fluorescence enhancement
morphology of human amylin fibrils (electron microscopy) [4, 7]: still formed characteristic amylin fibrils
effect on precipitable amyloid formation [3]: no effects on amyloid formation

CN(C)c1ccc2nc3ccc(N(C)C)cc3[s+]c2c1 [methylene blue]
enhancement of thioflavin-T fluorescence by human amylin [2, 6]: no increase in thioflavin-T enhanced fluorescence
enhancement of thioflavin-T fluorescence by human amylin ([2]; 1200 μM compound (20-fold molar excess), 60 μM human amylin, over 24 h (FIG. 3), listed as Methylene blue): complete inhibition
effect on precipitable amyloid formation [3]: no effects on amyloid formation
effect on precipitable amyloid formation ([3]; listed as Methylene blue): no effect

CCN(CC)CCCC(C)Nc1c2ccc(Cl)cc2nc2ccc(OC)cc12 (stereo not drawn) [quinacrine]
rate of human amylin fibril formation (electron microscopy) ([4]; 7000 μM quinacrine, 70 μM human amylin, 1.5, 5 and 26 hours): appears to slow the rate of human amylin fibril formation
morphology of human amylin fibrils (electron microscopy) ([4]; 7000 μM quinacrine, 70 μM human amylin, 5 hours and 26 hours): large aggregates with few defined fibrils

CN(C)[C@@H]1C(=O)C(C(N)=O)=C(O)[C@@]2(O)C(=O)C3=C(O)c4c(O)cccc4[C@@](C)(O)[C@H]3C[C@@H]12 [tetracycline]
enhancement of thioflavin-T fluorescence by human amylin ([2]; 700 μM compound, 70 μM human amylin, 10 mM tris pH 7.4, over 72 hours (FIG. 1)): initial but significantly decreased formation of a mylin fibril-associated fluorescence up to 2 h ours, followed by a gradual decrease in fluorescence
enhancement of thioflavin-T fluorescence by human amylin [2, 6]: immediate increase in fluorescence occurred, followed by a gradual decrease in fluorescence over the next 24 h
rate of formation of human amylin fibrils (electron microscopy) ([4]; 700 μM tetracycline, 70 μM human amylin, 1.5 hours and 5 hours): appears to slow the rate of formation of human amylin fibrils
morphology of human amylin fibrils (electron microscopy) ([4]; 700 μM tetracycline, 70 μM human amylin, 29 hours and 48 hours): short fragmented fibrils
morphology of human amylin fibrils (electron microscopy) [4, 7]: short fragmented structures
morphology of pre-formed amylin fibrils (electron microscopy) ([4]; human amylin pre-incubated for 20 h, then tetracycline for 48 h): fragments of amylin fibrils interdispersed with smaller fibrils
reduction in the incorporation of radioactive human amylin into precipitable amylin fibrils ([3]; 100 μM tetracycline, 10 μM human amylin, 16,000×g): ~50%
percentage of precipitable amylin fibrils on centrifugation at 100,000×g ([3]; 100 μM tetracycline, 10 μM human amylin, 100,000×g (FIG. 7B)): unaffected
percentage of precipitable amyloid, after the decrease ([3]; 200 μM tetracycline, 10 μM human amylin, 50 h incubation period): ~60%
percentage of precipitable amyloid, before the decrease ([3]; 200 μM tetracycline, 10 μM human amylin, start of the decrease): approximately 85%
intrinsic cytotoxicity of compound to RINm5F β cells ([5]; relative molar ratios which produced suppression of amyloid aggregation (low μM)): cytotoxic

Cc1ccc2c(c1)sc(-c1ccc(N(C)C)cc1)[n+]2C.[Cl-] [thioflavin-T]
effect on precipitable amyloid formation [3]: no effects on amyloid formation

human amylin
cytotoxicity of amylin peptide to RINm5F cells [5]: significant increase in cell death

rat amylin: synthetic rat amylin from Bachem; non-fibril forming control
cytotoxicity of amylin peptide to RINm5F cells [5]: not cytotoxic
